Assay results taken from ChEMBL document CHEMBL1151058, “Synthesis and structure-activity relationships of novel THF 1-methylcarbapenems” (1997).
≈ marks a conversion by molar mass, not a printed value.

Experiments:
Assay type in all cases: functional
[1] = test system: Pseudomonas aeruginosa; test: In vitro minimum inhibitory concentration required against Pseudomonas aeruginosa GC 1544 oprD- strain
[2] = test system: Enterococcus faecium; test: In vitro minimum inhibitory concentration required against Enterococcus faecium GC 1182 strain
[3] = test system: Escherichia coli; test: In vitro minimum inhibitory concentration required against Escherichia coli ATCC 25922 strain
[4] = test system: Staphylococcus aureus; test: In vitro minimum inhibitory concentration required against Staphylococcus aureus ATCC 29213 strain
[5] = test system: Staphylococcus aureus; test: In vitro minimum inhibitory concentration required against Staphylococcus aureus GC 2220 MRSA strain
[6] = test system: Pseudomonas aeruginosa; test: In vitro minimum inhibitory concentration required against Pseudomonas aeruginosa ATCC 27853 strain
[7] = test system: Escherichia coli; test: In vitro minimum inhibitory concentration required against Escherichia coli GC 2205 strain
[8] = test system: Citrobacter freundii; test: In vitro minimum inhibitory concentration required against Citrobacter freundii GC 2211 strain
[9] = species: Sus scrofa; test: Relative hydrolysis was measured by hog renal dehydropeptidase (DHP).
[10] = test system: Enterococcus faecalis; test: In vitro minimum inhibitory concentration required against Enterococcus faecalis GC 842 strain
[11] = test system: Enterobacter cloacae; test: In vitro minimum inhibitory concentration required against Enterobacter cloacae GC 2209 strain
[12] = test system: Stenotrophomonas maltophilia; test: In vitro minimum inhibitory concentration required against Xanthomonas maltophilia GC 562 strain
[13] = test system: Escherichia coli; test: In vitro minimum inhibitory concentration required against Escherichia coli GC 1792 strain
[14] = test system: Morganella morganii; test: In vitro minimum inhibitory concentration required against Morganella morganii GC 2213 strain
[15] = test system: Acinetobacter calcoaceticus; test: In vitro minimum inhibitory concentration required against Acinetobacter calcoaceticus GC 756 strain
[16] = test system: Escherichia coli; test: Effective single subcutaneous dose required for inhibition of Escherichia coli in mice
[17] = test system: Escherichia coli; test: Effective single oral dose required for inhibition of Escherichia coli in mice
[18] = Enterococcus faecium, read-out: MIC
[19] = Enterococcus faecalis, read-out: MIC
[20] = Acinetobacter calcoaceticus, read-out: MIC
[21] = Escherichia coli, sc, read-out: ED50
[22] = Escherichia coli, po, read-out: ED50

Row | Structure (SMILES) | Relative hydrolysis [9] | MIC [1] | MIC [2, 18] | MIC [3] | MIC [4] | MIC [5] | MIC [6] | MIC [7] | MIC [8] | MIC [10, 19] | MIC [11] | MIC [12] | MIC [13] | MIC [14] | MIC [15, 20] | also measured
1 | C[C@H]1C(S[C@H]2CCO[C@@H]2CN)=C(C(=O)O)N2C(=O)[C@H]([C@@H](C)O)C12 (some centres undefined) | 18 | 32 µg/mL (≈ 93.5 µM) | > 64 µg/mL | 0.5 µg/mL (≈ 1.46 µM) | 0.06 µg/mL (≈ 0.175 µM) | 4 µg/mL (≈ 11.7 µM) | 16 µg/mL (≈ 46.7 µM) | 0.25 µg/mL (≈ 0.73 µM) | 1 µg/mL (≈ 2.92 µM) | 8 µg/mL (≈ 23.4 µM) | 0.5 µg/mL (≈ 1.46 µM) | > 64 µg/mL | 0.5 µg/mL (≈ 1.46 µM) | 2 µg/mL (≈ 5.84 µM) |  | 
2 | C[C@H]1C(S[C@@H]2CO[C@H](CN)C2)=C(C(=O)O)N2C(=O)[C@H]([C@@H](C)O)C12 (some centres undefined) | 7.3 | 16 µg/mL (≈ 46.7 µM) | 128 µg/mL (≈ 374 µM) | ≤ 0.06 µg/mL | ≤ 0.06 µg/mL | 4 µg/mL (≈ 11.7 µM) | 8 µg/mL (≈ 23.4 µM) | 0.12 µg/mL (≈ 0.35 µM) | 0.12 µg/mL (≈ 0.35 µM) | 4 µg/mL (≈ 11.7 µM) | ≤ 0.06 µg/mL | > 128 µg/mL | ≤ 0.06 µg/mL | 0.5 µg/mL (≈ 1.46 µM) | 2 µg/mL (≈ 5.84 µM) | 
3 | C[C@@H](O)[C@H]1C(=O)N2C(C(=O)O)=C(S[C@@H]3CCO[C@@H]3CN)[C@H](C)[C@H]12 | 8.5 |  |  |  |  |  |  |  |  |  |  |  |  |  |  | ED50 [16, 21]: 0.34 mg/kg; ED50 [17, 22]: 3.8 mg/kg
4 | C[C@H]1C(S[C@H]2CO[C@H](CN)C2)=C(C(=O)O)N2C(=O)[C@H]([C@@H](C)O)C12 (some centres undefined) |  | 8 µg/mL (≈ 23.4 µM) | > 128 µg/mL | ≤ 0.06 µg/mL | ≤ 0.06 µg/mL | 8 µg/mL (≈ 23.4 µM) | 2 µg/mL (≈ 5.84 µM) | ≤ 0.06 µg/mL | ≤ 0.06 µg/mL | 2 µg/mL (≈ 5.84 µM) | ≤ 0.06 µg/mL | > 128 µg/mL | ≤ 0.06 µg/mL | 0.25 µg/mL (≈ 0.73 µM) | 1 µg/mL (≈ 2.92 µM) | 
5 | C[C@H]1C(SC2COC(CN)C2)=C(C(=O)O)N2C(=O)[C@H]([C@@H](C)O)C12 (stereo in doubt; 3a) [listing 1 of 2 here] |  |  |  | ≤ 0.06 µg/mL | ≤ 0.06 µg/mL |  |  | ≤ 0.06 µg/mL | ≤ 0.06 µg/mL |  | ≤ 0.06 µg/mL |  | ≤ 0.06 µg/mL |  | 1 µg/mL (≈ 2.92 µM) | ED50 [16, 21]: 0.27 mg/kg; ED50 [17, 22]: 3.7 mg/kg
6 | C[C@H]1C(S[C@H]2CCO[C@H]2CN)=C(C(=O)O)N2C(=O)[C@H]([C@@H](C)O)C12 (some centres undefined) | 4.5 | 16 µg/mL (≈ 46.7 µM) | 128 µg/mL (≈ 374 µM) | 0.5 µg/mL (≈ 1.46 µM) | 0.12 µg/mL (≈ 0.35 µM) | 8 µg/mL (≈ 23.4 µM) | 4 µg/mL (≈ 11.7 µM) | 0.5 µg/mL (≈ 1.46 µM) | 0.5 µg/mL (≈ 1.46 µM) | 4 µg/mL (≈ 11.7 µM) | 0.25 µg/mL (≈ 0.73 µM) | > 128 µg/mL | 0.5 µg/mL (≈ 1.46 µM) | 2 µg/mL (≈ 5.84 µM) | 4 µg/mL (≈ 11.7 µM) | 
7 | C[C@@H](O)[C@H]1C(=O)N2C(C(=O)O)=C(S[C@@H]3CN[C@H](C(=O)N(C)C)C3)[C@H](C)[C@H]12 [MEROPENEM] | 28 | 4 µg/mL (≈ 10.4 µM) | > 128 µg/mL | ≤ 0.06 µg/mL | ≤ 0.06 µg/mL | 8 µg/mL (≈ 20.9 µM) | 0.25 µg/mL (≈ 0.652 µM) | ≤ 0.06 µg/mL | ≤ 0.06 µg/mL | 2 µg/mL (≈ 5.22 µM) | ≤ 0.06 µg/mL | > 128 µg/mL | ≤ 0.06 µg/mL | ≤ 0.06 µg/mL | 0.5 µg/mL (≈ 1.3 µM) | 
8 | C[C@H]1C(SC2COC(CN)C2)=C(C(=O)O)N2C(=O)[C@H]([C@@H](C)O)C12 (stereo in doubt; 3b) [listing 1 of 2 here] |  |  |  |  |  |  |  |  |  |  |  |  |  |  |  | MIC [15]: 2 µg/mL (≈ 5.84 µM); MIC [2]: 128 µg/mL (≈ 374 µM); ED50 [16]: 0.28 mg/kg; ED50 [17]: 3.5 mg/kg; MIC [10]: 2 µg/mL (≈ 5.84 µM)
9 | C[C@H]1C(S[C@H]2CO[C@@H](CN)C2)=C(C(=O)O)N2C(=O)[C@H]([C@@H](C)O)C12 (some centres undefined) | 10 | 32 µg/mL (≈ 93.5 µM) | > 128 µg/mL | ≤ 0.06 µg/mL | ≤ 0.06 µg/mL | 8 µg/mL (≈ 23.4 µM) | 16 µg/mL (≈ 46.7 µM) | ≤ 0.06 µg/mL | 0.12 µg/mL (≈ 0.35 µM) | 4 µg/mL (≈ 11.7 µM) | ≤ 0.06 µg/mL | > 128 µg/mL | ≤ 0.06 µg/mL | 0.5 µg/mL (≈ 1.46 µM) | 2 µg/mL (≈ 5.84 µM) | 
10 | C[C@@H](O)[C@H]1C(=O)N2C(C(=O)O)=C(SCCNC=N)C[C@H]12 [IMIPENEM ANHYDROUS] | 100 |  |  |  | ≤ 0.06 µg/mL |  |  |  |  |  | ≤ 0.06 µg/mL |  | ≤ 0.06 µg/mL |  |  | ED50 [16, 21]: 0.67 mg/kg; ED50 [17, 22]: 79 mg/kg

More lines, main results first:

Row | Relative hydrolysis [9] | Structure (SMILES) | MIC [1] | MIC [2, 18] | MIC [3] | MIC [4] | MIC [5] | MIC [6] | MIC [7] | MIC [8] | MIC [10, 19] | MIC [11] | MIC [12] | MIC [13] | MIC [14] | MIC [15, 20] | also measured
11 | 37 | C[C@H]1C(S[C@H]2COC[C@@H]2CN)=C(C(=O)O)N2C(=O)[C@H]([C@@H](C)O)C12 (some centres undefined) | 64 µg/mL (≈ 187 µM) | > 128 µg/mL | 0.5 µg/mL (≈ 1.46 µM) | 0.12 µg/mL (≈ 0.35 µM) | 16 µg/mL (≈ 46.7 µM) | 16 µg/mL (≈ 46.7 µM) | 0.5 µg/mL (≈ 1.46 µM) | 1 µg/mL (≈ 2.92 µM) | 8 µg/mL (≈ 23.4 µM) | 0.5 µg/mL (≈ 1.46 µM) | > 128 µg/mL | 0.5 µg/mL (≈ 1.46 µM) | 4 µg/mL (≈ 11.7 µM) | 8 µg/mL (≈ 23.4 µM) | 
12 | 39 | C[C@H]1C(S[C@@H]2COC[C@H]2CN)=C(C(=O)O)N2C(=O)[C@H]([C@@H](C)O)C12 (some centres undefined) | 64 µg/mL (≈ 187 µM) | > 128 µg/mL | 0.25 µg/mL (≈ 0.73 µM) | 0.12 µg/mL (≈ 0.35 µM) | 16 µg/mL (≈ 46.7 µM) | 32 µg/mL (≈ 93.5 µM) | 0.25 µg/mL (≈ 0.73 µM) | 1 µg/mL (≈ 2.92 µM) | 8 µg/mL (≈ 23.4 µM) | 0.25 µg/mL (≈ 0.73 µM) | > 128 µg/mL | 0.25 µg/mL (≈ 0.73 µM) | 4 µg/mL (≈ 11.7 µM) | 16 µg/mL (≈ 46.7 µM) | 
13 | < 1 | C[C@H]1C(S[C@H]2COC[C@H]2CN)=C(C(=O)O)N2C(=O)[C@H]([C@@H](C)O)C12 (some centres undefined) |  |  | ≤ 0.06 µg/mL | ≤ 0.06 µg/mL |  |  |  |  |  | ≤ 0.06 µg/mL |  | ≤ 0.06 µg/mL |  |  | 
14 | 19 | C[C@H]1C(SC2COC(CN)C2)=C(C(=O)O)N2C(=O)[C@H]([C@@H](C)O)C12 (stereo in doubt; 3a) [listing 2 of 2 here] |  |  |  |  |  |  |  |  |  |  |  |  |  |  | 
15 | 10 | C[C@H]1C(SC2COC(CN)C2)=C(C(=O)O)N2C(=O)[C@H]([C@@H](C)O)C12 (stereo in doubt; 3b) [listing 2 of 2 here] |  |  |  |  |  |  |  |  |  |  |  |  |  |  | 
16 | < 1 | C[C@H]1C(S[C@@H]2COC[C@@H]2CN)=C(C(=O)O)N2C(=O)[C@H]([C@@H](C)O)C12 (some centres undefined) |  |  |  |  |  |  |  |  |  |  |  |  |  |  | 
